Measurements from patent publication US20090156466A1, “Characterization of a MEKK binding site and uses thereof” (priority 2007, published 2009).

What was measured:
MEKK3-14-3-3 interaction = molecular target: T1, MEKK3-14-3-3 interaction (Homo sapiens, UniProt Q99759); experiment: Co-immunoprecipitation of 14-3-3 with FLAG-MEKK3 from HEK 293 cells treated with kinase inhibitor; type: cell-based; settings: HEK 293 cells with wt MEKK3; 1 μM, 5 μM or 10 μM for 20 min prior to solubilization
T1 construct: expressed in transfected cells; host or cells: HEK 293
T1 sequence (Q99759 1-626): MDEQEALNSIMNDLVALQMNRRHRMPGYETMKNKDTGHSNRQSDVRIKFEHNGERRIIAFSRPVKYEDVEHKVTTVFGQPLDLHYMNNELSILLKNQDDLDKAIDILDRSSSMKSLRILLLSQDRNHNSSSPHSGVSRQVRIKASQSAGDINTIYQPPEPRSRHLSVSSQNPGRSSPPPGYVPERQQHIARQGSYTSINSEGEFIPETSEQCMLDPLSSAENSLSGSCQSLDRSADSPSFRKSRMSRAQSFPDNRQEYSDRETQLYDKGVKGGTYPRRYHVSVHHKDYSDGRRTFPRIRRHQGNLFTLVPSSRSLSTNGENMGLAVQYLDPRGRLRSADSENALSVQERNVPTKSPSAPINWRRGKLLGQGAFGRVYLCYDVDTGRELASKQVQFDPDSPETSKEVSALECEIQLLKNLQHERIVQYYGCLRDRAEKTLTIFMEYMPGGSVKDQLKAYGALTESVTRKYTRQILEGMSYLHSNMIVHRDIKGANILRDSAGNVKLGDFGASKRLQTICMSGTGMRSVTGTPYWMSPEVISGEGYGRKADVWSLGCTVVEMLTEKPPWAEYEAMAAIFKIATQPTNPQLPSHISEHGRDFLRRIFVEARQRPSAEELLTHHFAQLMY
Description: A, B. HEK 293 cells were transfected with wildtype (wt) MEKK3, K391M MEKK3, or S526A MEKK (shown in B) or empty vector. After 24 hours, cells were solubilized, and FLAG-MEKK3 was immunoprecipitated with anti-FLAG M2-conjugated agarose. Proteins were resolved by SDS-PAGE, and immunoblotted with anti-FLAG antibody or anti-14-3-3β antibody (which recognizes the family of 14-3-3 proteins). C. HEK 293 cells were transfected with wt MEKK3 for 24 hours, and then treated with staurosporine (1 μM, 5 μM, or 10 μM) for 20 min prior to solubilization. MEKK3 and 14-3-3 were detected as in A.
HEK 293 cells were plated onto 35-mm-diameter dishes at 80% confluency, and transfected with 100 to 500 ng of cDNA using Lipofectamine-2000 (Gibco-BRL) following the manufacturer's protocol. Transfection medium was removed and replaced with complete DMEM overnight.
Cells were lysed in 50 mM Tris-HCl, pH 7.4, 1% Triton X-100, 25 mM NaF, 25 mM β-glycerophosphate, 5 mM EDTA, 0.05% SDS, 1.0 μg/ml microcystin LR, and protease inhibitors. […] FLAG was stained with anti-FLAG M2 mouse monoclonal (Sigma), and 14-3-3 isoforms were detected with anti-14-3-3β (H8; Santa Cruz Biotechnology).
The family of 14-3-3 proteins was detected by immunoblotting with a pan-specific 14-3-3 antibody raised against a common sequence present in all family members. […]

MEKK3 = molecular target: T2, MEKK3 (Homo sapiens, UniProt Q99759); experiment: MEKK3 mobility band shift on high-ratio acrylamide:bis-acrylamide SDS-PAGE of lysates from treated cells; type: cell-based; settings: MEKK3 expressed in treated HEK293 cells; data not shown
T2 construct: expressed in transfected cells; host or cells: HEK 293
T2 sequence (Q99759 1-626): T1 sequence (Q99759 1-626)

SMILES | MEKK3-14-3-3 interaction (14-3-3 co-immunoprecipitation) (MEKK3-14-3-3 interaction) | MEKK3 band shift (mobility shift on SDS-PAGE) (MEKK3)
CN[C@@H]1C[C@H]2O[C@@](C)([C@@H]1OC)n1c3ccccc3c3c4c(c5c6ccccc6n2c5c31)C(=O)NC4 [staurosporine] | disrupted MEKK3-14-3-3 interaction | reduced the MEKK3 band shift
N#CC(=C(/N)Sc1ccccc1N)/C(C#N)=C(\N)Sc1ccccc1N [U0126] | – | had no effect on mobility shift
